We go through two compounds from article PMC8872763 (Proceedings of the National Academy of Sciences of the …, 2022).

In this assay the target is glucose oxidase (GOX) (Aspergillus niger, UniProt P13006). The experiment in a line: time-resolved fluorescence of protein-bound flavin. It is filed as binding. As to conditions: 390-nm excitation.

SMILES strings stand for the structures.

glucose oxidase (GOX), sequence (P13006 23-605 limits assumed): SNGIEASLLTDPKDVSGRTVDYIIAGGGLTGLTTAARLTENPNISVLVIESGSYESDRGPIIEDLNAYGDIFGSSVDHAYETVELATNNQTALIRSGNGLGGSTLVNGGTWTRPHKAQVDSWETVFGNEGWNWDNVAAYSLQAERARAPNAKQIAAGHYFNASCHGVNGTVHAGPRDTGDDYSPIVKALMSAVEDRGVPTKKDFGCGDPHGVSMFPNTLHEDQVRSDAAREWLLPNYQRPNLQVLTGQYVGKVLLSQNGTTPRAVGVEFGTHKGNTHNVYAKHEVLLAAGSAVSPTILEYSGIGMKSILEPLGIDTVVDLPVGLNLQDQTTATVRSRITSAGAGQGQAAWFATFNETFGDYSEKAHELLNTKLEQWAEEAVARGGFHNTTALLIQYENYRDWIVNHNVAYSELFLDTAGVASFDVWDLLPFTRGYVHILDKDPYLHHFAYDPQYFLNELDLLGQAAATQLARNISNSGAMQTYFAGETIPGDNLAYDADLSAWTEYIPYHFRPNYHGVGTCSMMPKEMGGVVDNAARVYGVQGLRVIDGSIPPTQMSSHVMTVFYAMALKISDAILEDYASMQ

Consider `Cc1cc2c(cc1C)N(C[C@H](O)[C@H](O)[C@H](O)COP(=O)(O)OP(=O)(O)OC[C@H]1O[C@@H](n3cnc4c(N)ncnc43)[C@H](O)[C@@H]1O)c1[nH]c(=O)[nH]c(=O)c1N2` [FADH^−], for which the “time-resolved fluorescence of protein-bound flavin (Kerr gate)” value is reported as “time-resolved fluorescence of FADH^− in GOX exhibits monophasic decay”.
The entry for `Cc1cc2nc3c(=O)[nH]c(=O)nc-3n(C[C@H](O)[C@H](O)[C@H](O)COP(=O)(O)OP(=O)(O)OC[C@H]3O[C@@H](n4cnc5c(N)ncnc54)[C@H](O)[C@@H]3O)c2cc1C` [FADox] is “The fluorescence decays of FADox and FADH^− in GOX measured under the same experimental conditions”.
